Target: NAD-dependent protein deacylase sirtuin-6 (Homo sapiens, UniProt Q8N6T7)
Experiment: Inhibition of SIRT6 (unknown origin) using Ac-RYQK(Ac)-AMC as substrate by Fluor de Lys assay

Sequence of NAD-dependent protein deacylase sirtuin-6 (Q8N6T7 whole entry): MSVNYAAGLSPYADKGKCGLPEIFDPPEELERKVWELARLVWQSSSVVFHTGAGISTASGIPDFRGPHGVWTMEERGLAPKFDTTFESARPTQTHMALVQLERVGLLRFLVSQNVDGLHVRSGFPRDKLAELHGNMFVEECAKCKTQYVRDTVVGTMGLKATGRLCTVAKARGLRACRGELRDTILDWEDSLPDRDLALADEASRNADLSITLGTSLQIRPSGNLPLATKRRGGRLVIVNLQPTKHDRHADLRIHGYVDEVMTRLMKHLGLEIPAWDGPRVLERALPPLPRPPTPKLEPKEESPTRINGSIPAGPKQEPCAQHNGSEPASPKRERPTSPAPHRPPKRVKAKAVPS

SMILES	IC50
CN1CCN(c2ccc([N+](=O)[O-])c(C(=O)Nc3cccc4ccccc34)c2)CC1	16.8 µM
COC(=O)c1cc(N2CCN(C)CC2)ccc1[N+](=O)[O-]	9.46 µM
CN1CCN(c2ccc([N+](=O)[O-])c(NCc3ccccc3)c2)CC1	12.5 µM
COc1cc(N2CCN(C)CC2)ccc1[N+](=O)[O-]	9.09 µM
CN1CCN(c2ccc([N+](=O)[O-])c(NC(=O)c3cc(Cl)nc4ccccc34)c2)CC1	12.4 µM
CN1CCN(c2ccc([N+](=O)[O-])c(C(=O)NCc3ccccc3)c2)CC1	17.5 µM
CN1CCN(c2ccc([N+](=O)[O-])c(C(F)(F)F)c2)CC1	21.1 µM
CN1CCN(c2ccc([N+](=O)[O-])c(C(=O)Nc3ccc(Oc4ccccc4)cc3)c2)CC1	20.9 µM
CN1CCN(c2ccc([N+](=O)[O-])cc2)CC1	21.9 µM
CN1CCN(c2ccc([N+](=O)[O-])c(O)c2)CC1	11 µM

From ChEMBL document CHEMBL4622928, “Discovery of 5-(4-methylpiperazin-1-yl)-2-nitroaniline derivatives as a new class of SIRT6 inhibitors” (Bioorg Med Chem Lett, 2020)
